Bounds are passed on as bounds.

The target of experiment [1] is T1, CDK12 (nuclear staining in CAL-120 cells) (Homo sapiens, UniProt Q9NYV4).
T1 construct: endogenous in cells; host or cells: CAL-120 human breast cancer cells (DSMZ ACC 459)
Briefly: CDK12 nuclear protein level: immunofluorescence/high content analysis (CAL-120). Format: cell-based. The settings on record: for DC50: CAL-120 cells, 24 h, immunofluorescence, 50% reduction of nuclear CDK12 staining intensity, median, read-out: CDK12 degradation IF, DC50- [mol/l] (median); for (IC50 CDK12 high ATP) to (Degradation DC50 CDK12) ratio: ratio of IC50 CDK12 high ATP kinase assay to DC50 CDK12 degradation (IF, CAL-120). A digest of the protocol:
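CAL-120 cells were treated with compound for 24 h at 37 °C, fixed with PFA and immunostained for CDK12. Nuclear CDK12 intensity was quantified by automated image analysis and normalized to DMSO and control. DC50 is the concentration giving 50% reduction of nuclear staining.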

Experiment [2] deals with T2, CDK2/CycE (Homo sapiens, UniProt P24941).
T2 construct: purchased ProQinase GmbH (Freiburg, Germany); host or cells: insect cells (Sf9)
Briefly: CDK2/CycE kinase assay (TR-FRET, 2 mM ATP). It counts as biochemical. The settings on record: 2 mM ATP (high ATP); median; read-out: CDK2/CyclinE, 2 mM ATP (high ATP), IC50 (median). Put shortly: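 GST-tagged human CDK2 and CycE from Sf9 cells, about 10 ng/ml, pre-incubated 15 min at 22 °C with compound in Tris/HCl pH 8.0 buffer. Reaction with 2 mM ATP and 0.75 µM biotinylated peptide for 25 min at 22 °C. Phospho-RB antibody TR-FRET (665/620 nm ratio) read after 1 h; data normalised to no-inhibitor and no-enzyme controls.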

T1 sequence (Q9NYV4 whole entry): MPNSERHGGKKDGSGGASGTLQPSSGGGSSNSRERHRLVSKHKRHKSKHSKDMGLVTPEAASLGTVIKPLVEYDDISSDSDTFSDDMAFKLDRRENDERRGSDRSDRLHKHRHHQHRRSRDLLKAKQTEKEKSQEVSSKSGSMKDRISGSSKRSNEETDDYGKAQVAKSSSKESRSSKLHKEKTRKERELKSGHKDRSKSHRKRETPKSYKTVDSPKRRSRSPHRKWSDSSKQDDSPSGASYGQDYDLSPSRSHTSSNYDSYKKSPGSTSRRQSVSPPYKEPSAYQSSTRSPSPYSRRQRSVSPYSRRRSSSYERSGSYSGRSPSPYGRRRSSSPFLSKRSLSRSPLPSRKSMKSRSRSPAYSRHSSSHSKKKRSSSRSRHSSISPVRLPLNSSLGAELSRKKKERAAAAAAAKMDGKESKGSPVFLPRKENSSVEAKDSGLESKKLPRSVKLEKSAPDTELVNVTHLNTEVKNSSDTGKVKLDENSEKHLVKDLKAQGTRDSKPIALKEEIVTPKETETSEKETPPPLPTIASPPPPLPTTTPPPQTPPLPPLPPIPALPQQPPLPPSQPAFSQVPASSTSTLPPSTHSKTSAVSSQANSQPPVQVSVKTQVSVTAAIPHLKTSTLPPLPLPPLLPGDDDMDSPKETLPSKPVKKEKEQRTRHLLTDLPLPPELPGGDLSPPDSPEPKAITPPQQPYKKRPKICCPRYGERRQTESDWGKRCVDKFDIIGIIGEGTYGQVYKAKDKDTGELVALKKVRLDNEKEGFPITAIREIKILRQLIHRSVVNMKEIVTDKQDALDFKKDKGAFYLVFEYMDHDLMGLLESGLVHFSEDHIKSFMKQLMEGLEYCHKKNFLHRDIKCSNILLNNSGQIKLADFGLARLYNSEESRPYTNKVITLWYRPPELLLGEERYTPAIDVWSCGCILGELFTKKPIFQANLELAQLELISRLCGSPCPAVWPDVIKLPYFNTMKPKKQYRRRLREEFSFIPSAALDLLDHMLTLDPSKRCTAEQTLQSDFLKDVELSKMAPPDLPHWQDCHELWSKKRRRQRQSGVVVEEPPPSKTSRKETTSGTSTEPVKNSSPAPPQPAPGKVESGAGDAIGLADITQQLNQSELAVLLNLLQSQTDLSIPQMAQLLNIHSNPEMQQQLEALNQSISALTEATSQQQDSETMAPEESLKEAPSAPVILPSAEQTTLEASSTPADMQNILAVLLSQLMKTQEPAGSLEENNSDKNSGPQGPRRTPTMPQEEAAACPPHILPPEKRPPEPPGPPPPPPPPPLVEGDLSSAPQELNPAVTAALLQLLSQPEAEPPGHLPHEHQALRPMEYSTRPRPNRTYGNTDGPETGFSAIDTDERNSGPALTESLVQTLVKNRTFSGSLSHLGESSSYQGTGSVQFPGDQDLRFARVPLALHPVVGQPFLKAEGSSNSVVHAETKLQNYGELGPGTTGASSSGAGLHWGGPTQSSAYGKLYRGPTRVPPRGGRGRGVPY
T1 sequence (O75909 whole entry partner): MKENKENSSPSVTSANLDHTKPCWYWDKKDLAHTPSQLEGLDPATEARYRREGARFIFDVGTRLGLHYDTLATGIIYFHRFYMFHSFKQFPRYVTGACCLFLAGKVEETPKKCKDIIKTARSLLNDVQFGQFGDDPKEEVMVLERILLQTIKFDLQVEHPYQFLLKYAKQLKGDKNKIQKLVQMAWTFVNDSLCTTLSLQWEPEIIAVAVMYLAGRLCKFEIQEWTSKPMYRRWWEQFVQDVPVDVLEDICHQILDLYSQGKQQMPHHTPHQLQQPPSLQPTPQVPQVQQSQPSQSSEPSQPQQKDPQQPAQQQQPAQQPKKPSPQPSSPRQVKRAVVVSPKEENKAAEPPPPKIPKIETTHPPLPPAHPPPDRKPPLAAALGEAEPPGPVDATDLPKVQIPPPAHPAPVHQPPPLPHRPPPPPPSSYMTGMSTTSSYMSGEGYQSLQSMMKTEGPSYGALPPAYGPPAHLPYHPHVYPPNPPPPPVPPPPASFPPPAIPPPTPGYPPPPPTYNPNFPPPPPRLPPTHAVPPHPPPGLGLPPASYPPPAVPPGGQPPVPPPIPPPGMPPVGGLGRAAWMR

On to `CCNc1nc(NCc2nc(-c3ccc(C)cc3)c[nH]2)n2ncc(Br)c2n1` [Example 26, 8-bromo-N^2-ethyl-N^4-{[4-(4-methylphenyl)-1H-imidazol-2-yl]methyl}pyrazolo[1,5-a][1,3,5]triazine-2,4-diamine], for which, in experiment [1], the DC50 is 58.4 nM and the “(IC50 CDK12 high ATP) to (Degradation DC50 CDK12) ratio” value worked out at 55. In experiment [2], the IC50 turned out to be 2070 nM.

In the case of `Brc1cnn2c(NCc3nc4ccccc4[nH]3)nc(N3C[C@H]4CC[C@@H]3CO4)nc12` (single isomer, unassigned; enantiomer 2) [Example 391, N-[(1H-benzimidazol-2-yl)methyl]-8-bromo-2-{[1R or S-(1R*,4R*)]-2-oxa-5-azabicyclo[2.2.2]octan-5-yl}pyrazolo[1,5-a][1,3,5]triazin-4-amine (Enantiomer 2)], in experiment [1], the DC50 stood at 6.98 nM and the “(IC50 CDK12 high ATP) to (Degradation DC50 CDK12) ratio” value is 960. Further, the IC50 in experiment [2] is 4910 nM.

With `CN1CCCN(c2nc(NCc3nc4ccccc4[nH]3)n3ncc(Br)c3n2)CC1` [Example 390, N-[(1H-benzimidazol-2-yl)methyl]-8-bromo-2-(4-methyl-1,4-diazepan-1-yl)pyrazolo[1,5-a][1,3,5]triazin-4-amine], in experiment [1], the DC50 was 19.2 nM and the “(IC50 CDK12 high ATP) to (Degradation DC50 CDK12) ratio” value is on record as above 1041. Also, the IC50 in experiment [2] was above 20000 nM.

With `Fc1cccc2[nH]c(CNc3nc(N4CCOCC4)nc4c(Cl)cnn34)nc12` [Example 361, 8-chloro-N-[(4-fluoro-1H-benzimidazol-2-yl)methyl]-2-(morpholin-4-yl)pyrazolo[1,5-a][1,3,5]triazin-4-amine], in experiment [1], the DC50 is 6.4 nM and the “(IC50 CDK12 high ATP) to (Degradation DC50 CDK12) ratio” value came out at 224. Besides, in experiment [2], the IC50 was determined as 4340 nM.

As for `Cc1[nH]c(CNc2nc(N3CCOCC3)nc3c(Br)cnn23)nc1-c1ccccc1` [Example 27, 8-bromo-N-[(5-methyl-4-phenyl-1H-imidazol-2-yl)methyl]-2-(morpholin-4-yl)pyrazolo[1,5-a][1,3,5]triazin-4-amine], in experiment [1], the DC50 is 128 nM and the “(IC50 CDK12 high ATP) to (Degradation DC50 CDK12) ratio” value is 27. Besides, the IC50 in experiment [2] was 17100 nM.

For `Fc1cc2nc(CNc3nc(N4CC5CCC(C4)N5)nc4c(C5CC5)cnn34)[nH]c2cc1F` [Example 325, 8-cyclopropyl-2-(3,8-diazabicyclo[3.2.1]octan-3-yl)-N-[(5,6-difluoro-1H-benzimidazol-2-yl)methyl]pyrazolo[1,5-a][1,5]triazin-4-amine], in experiment [1], the DC50 stood at 1.88 nM and the “(IC50 CDK12 high ATP) to (Degradation DC50 CDK12) ratio” value turned out to be 1890. The IC50 in experiment [2] is above 20000 nM.

Turning to `Fc1c(Cl)ccc2[nH]c(CNc3nc(N4CCOCC4)nc4c(C5CC5)cnn34)nc12` [Example 370, N-[(5-chloro-4-fluoro-1H-benzimidazol-2-yl)methyl]-8-cyclopropyl-2-(morpholin-4-yl)pyrazolo[1,5-a][1,3,5]triazin-4-amine], in experiment [1], the DC50 turned out to be 2.19 nM and the “(IC50 CDK12 high ATP) to (Degradation DC50 CDK12) ratio” value is listed as 77. Moreover, the IC50 in experiment [2] was above 20000 nM.

As for `CN1C2CCC1CN(c1nc(NCc3nc4c(F)cccc4[nH]3)n3ncc(C(F)(F)F)c3n1)C2` [Example 384, N-[(4-fluoro-1H-benzimidazol-2-yl)methyl]-2-(8-methyl-3,8-diazabicyclo[3.2.1]octan-3-yl)-8-(trifluoromethyl)pyrazolo[1,5-a][1,3,5]triazin-4-amine], in experiment [1], the DC50 was found to be 11 nM and the “(IC50 CDK12 high ATP) to (Degradation DC50 CDK12) ratio” value came to 735. Besides, the IC50 in experiment [2] was above 20000 nM.

Consider `CN(CC(C)(C)O)c1nc(NCc2nc3c(F)c(Cl)ccc3[nH]2)n2ncc(Br)c2n1` [Example 374, 1-[(8-bromo-4-{[(5-chloro-4-fluoro-1H-benzimidazol-2-yl)methyl]amino}pyrazolo[1,5-a][1,3,5]triazin-2-yl)(methyl)amino]-2-methylpropan-2-ol], for which, in experiment [1], the DC50 came to 1.81 nM and the “(IC50 CDK12 high ATP) to (Degradation DC50 CDK12) ratio” value was found to be 85. Besides, the IC50 in experiment [2] worked out at 3120 nM.

On to `CN(c1nc(NCc2nc3ccccc3[nH]2)n2ncc(Br)c2n1)[C@H]1C[C@@H](O)C1` [Example 364, cis-3-[(4-{[(1H-benzimidazol-2-yl)methyl]amino}-8-bromopyrazolo[1,5-a][1,3,5]triazin-2-yl)(methyl)amino]cyclobutan-1-ol], for which, in experiment [1], the DC50 turned out to be 3.81 nM and the “(IC50 CDK12 high ATP) to (Degradation DC50 CDK12) ratio” value is recorded as 1751. In experiment [2], the IC50 is 2070 nM.

As for `Fc1c(Cl)ccc2[nH]c(CNc3nc(N4CC5CCC(C4)N5)nc4c(Br)cnn34)nc12` [Example 380, 8-bromo-N-[(5-chloro-4-fluoro-1H-benzimidazol-2-yl)methyl]-2-(3,8-diazabicyclo[3.2.1]octan-3-yl)pyrazolo[1,5-a][1,3,5]triazin-4-amine], in experiment [1], the DC50 came to 2.32 nM and the “(IC50 CDK12 high ATP) to (Degradation DC50 CDK12) ratio” value stood at 438. Besides, the IC50 in experiment [2] was 9260 nM.

Regarding `Cc1cc2nc(CNc3nc(N4CCOCC4)nc4c(C5CC5)cnn34)[nH]c2cc1C` [Example 320, 8-cyclopropyl-N-[(5,6-dimethyl-1H-benzimidazol-2-yl)methyl]-2-(morpholin-4-yl)pyrazolo[1,5-a][1,3,5]triazin-4-amine], in experiment [1], the DC50 was determined as 4.28 nM and the “(IC50 CDK12 high ATP) to (Degradation DC50 CDK12) ratio” value is given as 130. Further, the IC50 in experiment [2] came out at 4710 nM.

For `Clc1cc2nc(CNc3nc(N4CC5CCC(C4)N5)nc4c(Br)cnn34)[nH]c2cc1Cl` [Example 334, 8-bromo-2-(3,8-diazabicyclo[3.2.1]octan-3-yl)-N-[(5,6-dichloro-1H-benzimidazol-2-yl)methyl]pyrazolo[1,5-a][1,3,5]triazin-4-amine], in experiment [1], the DC50 amounted to 33.5 nM and the “(IC50 CDK12 high ATP) to (Degradation DC50 CDK12) ratio” value is reported as 60. Besides, the IC50 in experiment [2] came out at 10500 nM.

Consider `Cc1ccnc2[nH]c(CNc3nc(N4CCOCC4)nc4c(C(C)C)cnn34)nc12` [Example 28, N-[(7-methyl-3H-imidazo[4,5-b]pyridin-2-yl)methyl]-2-(morpholin-4-yl)-8-(propan-2-yl)pyrazolo[1,5-a][1,3,5]triazin-4-amine], for which, in experiment [1], the DC50 amounted to 6.5 nM and the “(IC50 CDK12 high ATP) to (Degradation DC50 CDK12) ratio” value was 511. Moreover, the IC50 in experiment [2] was determined as 6020 nM.

With `CN(CC(C)(C)O)c1nc(NCc2nc3c(F)c(F)ccc3[nH]2)n2ncc(Cl)c2n1` [Example 359, 1-[(8-chloro-4-{[(4,5-difluoro-1H-benzimidazol-2-yl)methyl]amino}pyrazolo[1,5-a][1,3,5]triazin-2-yl)(methyl)amino]-2-methylpropan-2-ol], in experiment [1], the DC50 amounted to 4.33 nM and the “(IC50 CDK12 high ATP) to (Degradation DC50 CDK12) ratio” value came out at 483. The IC50 in experiment [2] is 12400 nM.

Consider `FC(F)(F)c1ccc2[nH]c(CNc3nc(N4CCOCC4)nc4c(Br)cnn34)nc2c1` [Example 339, 8-bromo-2-(morpholin-4-yl)-N-{[5-(trifluoromethyl)-1H-benzimidazol-2-yl]methyl}pyrazolo[1,5-a][1,3,5]triazin-4-amine], for which, in experiment [1], the DC50 stood at 7.59 nM and the “(IC50 CDK12 high ATP) to (Degradation DC50 CDK12) ratio” value is recorded as 204. Besides, the IC50 in experiment [2] worked out at 6740 nM.

In the case of `FC(F)(F)c1ccc2[nH]c(CNc3nc(N4CC5CCC(C4)N5)nc4c(C5CC5)cnn34)nc2c1` [Example 327, 8-cyclopropyl-2-(3,8-diazabicyclo[3.2.1]octan-3-yl)-N-{[5-(trifluoromethyl)-1H-benzimidazol-2-yl]methyl}pyrazolo[1,5-a][1,3,5]triazin-4-amine], in experiment [1], the DC50 worked out at 10 nM and the “(IC50 CDK12 high ATP) to (Degradation DC50 CDK12) ratio” value turned out to be 235. Also, in experiment [2], the IC50 was above 18700 nM.

Regarding `Cc1cc2nc(CNc3nc(N4CC5CCC(C4)N5)nc4c(Br)cnn34)[nH]c2cc1C` [Example 353, 8-bromo-2-(3,8-diazabicyclo[3.2.1]octan-3-yl)-N-[(5,6-dimethyl-1H-benzimidazol-2-yl)methyl]pyrazolo[1,5-a][1,3,5]triazin-4-amine], in experiment [1], the DC50 worked out at 12.4 nM and the “(IC50 CDK12 high ATP) to (Degradation DC50 CDK12) ratio” value was determined as 203. Also, the IC50 in experiment [2] worked out at 2860 nM.

Regarding `CN(CC(C)(C)O)c1nc(NCc2nc3c(F)cccc3[nH]2)n2ncc(Cl)c2n1` [Example 366, 1-[(8-chloro-4-{[(4-fluoro-1H-benzimidazol-2-yl)methyl]amino}pyrazolo[1,5-a][1,3,5]triazin-2-yl)(methyl)amino]-2-methylpropan-2-ol], in experiment [1], the DC50 is 9.52 nM and the “(IC50 CDK12 high ATP) to (Degradation DC50 CDK12) ratio” value was determined as 190. For the same compound, in experiment [2], the IC50 was found to be 5570 nM.

Turning to `Fc1cc2nc(CNc3nc(N4CCOCC4)nc4c(Br)cnn34)[nH]c2cc1Cl` [Example 336, 8-bromo-N-[(6-chloro-5-fluoro-1H-benzimidazol-2-yl)methyl]-2-(morpholin-4-yl)pyrazolo[1,5-a][1,3,5]triazin-4-amine], in experiment [1], the DC50 came to 3.08 nM and the “(IC50 CDK12 high ATP) to (Degradation DC50 CDK12) ratio” value turned out to be 256. For the same compound, the IC50 in experiment [2] is 8950 nM.

Take `Brc1cnn2c(NCc3nc4ccccc4[nH]3)nc(N3CC4CCC3CO4)nc12` (stereo not drawn) [Example 352, N-[(1H-benzimidazol-2-yl)methyl]-8-bromo-2-(2-oxa-5-azabicyclo[2.2.2]octan-5-yl)pyrazolo[1,5-a][1,3,5]triazin-4-amine]: in experiment [1], the DC50 is 5.68 nM and the “(IC50 CDK12 high ATP) to (Degradation DC50 CDK12) ratio” value is given as 925. For the same compound, in experiment [2], the IC50 came out at 2300 nM.

The record behind these values is patent US20230117034A1, “PYRAZOLOTRIAZINES” (Bayer Aktiengesellschaft, priority 2019, published 2023).
